Assay results taken from US7196110B2, “N-substituted tricyclic 3-aminopyrazoles as inhibitors for the treatment of cell proliferative disorders” (Janssen Phamaceutica N.V., priority 2002, dated 2007).
Like-named read-outs stand apart in the source and are kept apart here.

What was measured:
[1] = system: human umbilical vein endothelial cells (HUVEC); test: Anti-cell proliferation in normal cells in the absence of PDGF stimulation (BrdU incorporation); format: cell-based; details: read-out: IC50 on cell proliferation, HUVEC (LSGS)
Description: The effect of compounds of the invention on cell proliferation in normal human primary cell, in particular, human umbilical vein endothelial cells (HUVEC), in the absence of PDGF stimulation was tested based on incorporation of BrdU into DNA of cells.
The following materials were purchased from their respective sources: HUVEC cells from Cascade Biologics, Cat No: C-015-10C; Medium 200 from Cascade Biologics, Cat No: M-200-500; Low serum growth supplements (LSGS) from Cascade Biologics, Cat No: S-003-10; F12-K medium from Gibco/BRL, Cat No: 21127-022; BrdU kit from Roche, Cat No: 1 647 229; and Trypsin/EDTA solution from Cascade Biologics, Cat No: R-001-100.
For propigation, HUVEC cells were grown in M-200 medium supplemented with LSGS. For studies, cells were detached with Trypsin/EDTA solution and washed three times with 10 mL of F12K (LS, low serum) medium and then centrifuged at 400×G for 5 minutes. F-12K (LS) medium is F-12K medium containing 0.2% heat-treated fetal bovine serum.
Cell concentration was adjusted to about 5×10^4 cells/mL in F-12K (LS) medium, and 200 μl (approx. 1×10^4 cells) were added to each well of a 96-well plate. Cells were then incubated for 16 to 20 hours at 37° C. under 95% air/5% CO2 to allow the cells to attach and become quiescent.
Cell proliferation was stimulated by adding 50 μL of a 1:10 dilution of LSGS in F12K (LS). Maximum-stimulated control wells were prepared by adding 50 μl of a 1:10 dilution of LSGS. Zero control wells contained 50 SL of F-12K (LS) medium only. Test compounds in 100% DMSO were added at a volume of 2.5 μl to achieve the desired final drug concentration. Replicates of eight wells per condition were tested. Cells were incubated at 37° C. overnight. On the next day 25 μL of BrdU (1:100 dilution of stock in F-12K (LS) medium) was added to each well.
Cells were incubated for an additional 20–24 hours. The medium was removed and the cells were fixed by adding 200 μL of FixDent solution (included in the BrdU kit) to each well and then incubated at room temperature for an additional 30 minutes. FixDent was removed by flicking and blotting the plates, and 100 μL of anti-BrdU-POD (included in the BrdU kit) diluted at a 1:100 dilution in antibody dilution solution (included in the BrdU kit) was added to each well. The diluted anti-BrdU-POD solution was prepared shortly before use. The plates were incubated at room temperature for 90 minutes.
The unbound antibody was removed by washing three times with Wash Solution (200 uL per wash). Wash Solution was prepared by making a 1:10 dilution of Wash Buffer Stock (included in the BrdU kit) with distilled water. Substrate solution (included in the BrdU kit) (100 uL) was added to each well and incubated for an additional 30–40 minutes. Plates were then read at 405 nm on a 96-well plate reader.
In order to test the potency of inhibition of the present compound, IC50 of an individual compound on the inhibition of PDGF-BB independent HUVEC proliferation was measured using the above procedure. As used herein, said IC50 refers to the concentration of the test compound at which the amount of HUVEC proliferation is reduced by one-half as compared to the maximum growth control wells without the compound.

[2] = molecular target: c-Abl kinase (Abelson murine leukemia virus, UniProt P00521); test: Inhibition of c-Abl kinase activity (cell-free, Abl peptide substrate, 33P Flashplate); format: biochemical; details: IC50 for the c-Abl kinase activity
Chain of c-Abl kinase (P00521 115-385): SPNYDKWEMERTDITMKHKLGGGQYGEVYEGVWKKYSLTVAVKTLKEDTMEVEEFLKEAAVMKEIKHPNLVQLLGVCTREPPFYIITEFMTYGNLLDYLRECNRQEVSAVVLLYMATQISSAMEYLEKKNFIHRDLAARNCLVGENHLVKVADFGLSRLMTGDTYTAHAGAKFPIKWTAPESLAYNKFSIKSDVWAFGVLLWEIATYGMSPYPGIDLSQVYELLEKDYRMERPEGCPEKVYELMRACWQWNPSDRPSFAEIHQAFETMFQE

| SMILES | IC50 ([1]; LSGS, PDGF-BB independent) | IC50 [2] | IC50 [1] |
| --- | --- | --- | --- |
| COC(=O)c1cccc(Nc2[nH]nc3c2Cc2cc(OC)c(OC)cc2-3)c1 [Compound 11, 3-(6,7-Dimethoxy-2,4-dihydro-indeno[1,2-c]pyrazol-3-ylamino)-benzoic acid methyl ester] | 2 nM | 118 nM |  |
| COc1cc2c(cc1OC)-c1n[nH]c(Nc3ccccc3F)c1C2 [Compound 12, (6,7-Dimethoxy-2,4-dihydro-indeno[1,2-c]pyrazol-3-yl)-(2-fluoro-phenyl)-amine] | 31 nM | 20 nM |  |
| COc1cc2c(cc1OC)-c1n[nH]c(Nc3cccc(F)c3)c1C2 [Compound 14, (3-Fluoro-phenyl)-(6,7-dimethoxy-2,4-dihydro-indeno[1,2-c]pyrazol-3-yl)-amine] |  |  | 4870 nM |
| Cc1ccc2c(c1)-c1n[nH]c(Nc3ccccc3)c1C2 [Compound 22, (7-Methyl-2,4-dihydro-indeno[1,2-c]pyrazol-3-yl)-phenyl-amine] | 2150 nM | 19 nM |  |
| COc1cc2c(cc1OC)-c1n[nH]c(Nc3cccnc3)c1C2 [Compound 30, (6,7-Dimethoxy-2,4-dihydro-indeno[1,2-c]pyrazol-3-yl)-pyridin-3-yl-amine] | > 1000 nM | 491 nM |  |
| COc1ccc2c(c1)-c1n[nH]c(Nc3ccccc3)c1C2 [Compound 39, (7-Methoxy-2,4-dihydro-indeno[1,2-c]pyrazol-3-yl)-phenyl-amine] |  | 13 nM |  |
| COc1cc2c(cc1OC)-c1n[nH]c(NCc3ccccc3)c1C2 [Compound 63, Benzyl-(6,7-dimethoxy-2,4-dihydro-indeno[1,2-c]pyrazol-3-yl)-amine] | 2460 nM | 419 nM |  |
| COc1cccc(Nc2[nH]nc3c2Cc2cc4c(cc2-3)OCO4)c1 [Compound 97, (2,9-Dihydro-5,7-dioxa-2,3-diaza-cyclopenta[a]-s-indacen-1-yl)-(3-methoxy-phenyl)-amine] | 1910 nM | 227 nM |  |
| CN1CCN(c2ccc3c(c2)Cc2c-3n[nH]c2Nc2cccc(Br)c2)CC1 [Compound 122, (3-Bromo-phenyl)-[6-(4-methyl-piperazin-1-yl)-2,4-dihydro-indeno[1,2-c]pyrazol-3-yl]-amine] | 223 nM | 1260 nM |  |
| COC(=O)c1cccc(Nc2[nH]nc3c2Cc2cc(OCCCN4CCCC4)c(OC)cc2-3)c1 [Compound 157, 3-[7-Methoxy-6-(3-pyrrolidin-1-yl-propoxy)-2,4-dihydro-indeno[1,2-c]pyrazol-3-ylamino]-benzoic acid methyl ester] | 218 nM | 371 nM |  |
| COc1cc2c(cc1OC)-c1n[nH]c(NCc3cc(Cl)ccc3Cl)c1C2 [Compound 330, (2,5-Dichloro-benzyl)-(6,7-dimethoxy-2,4-dihydro-indeno[1,2-c]pyrazol-3-yl)-amine] | 49 nM | 91 nM |  |
| COc1cc2c(cc1OC)-c1c(c(Nc3cccc(F)c3)nn1C(=O)CO)C2 [Compound 432, 1-[3-(3-Fluoro-phenylamino)-6,7-dimethoxy-4H-indeno[1,2-c]pyrazol-1-yl]-2-hydroxy-ethanone] |  | 96 nM |  |
